Measured values published in patent US20090005398A1, “Methods For The Treatment of Central Nervous System Tumors” (priority 2007, published 2009).

Assays:
Format in all cases: cell-based
cancer cell lines = experiment: Methylene Blue, Cell-Titre Glo Growth or Multiple Cell Line cellular proliferation assays
Experimental: Generally, exponentially growing cell lines of different tumor origins, cultured in appropriate media containing 10% fetal bovine serum at 37° C. in a 5% CO2 incubator were plated at low density (less than 2000 cells/well) in 96-well plates. Twenty four hours post-plating, cells were treated with different concentrations of compound ranging from 10 uM to 0.04 nM. Several wells were left untreated as a control. Seventy two hours post-treatment, cell numbers were determined using 100 μl per well of methylene blue (Sigma M9140) (0.5% in 50:50 Ethanol:water). Stain was incubated at room temperature for 30 minutes before plates were rinsed and dye solubilized in 1% N-lauroyl sarcosine, sodium salt, (Sigma L5125, in PBS) (further details of a methylene blue assay are described below). Plates were read on a microplate reader, measuring the OD at 620 nm.
Exponentially growing cell lines of different tumor origins, cultured in appropriate media containing 10% fetal bovine serum at 37° C. in a 5% CO2 incubator were plated at low density (less than 2000 cells/well) in 96-well plates. […] Seventy two hours post-treatment, cell numbers were determined using 50-100 ul per well of CellTiter-Glo (Promega #G7573). Plates were incubated at room temperature for 15 minutes and the chemiluminescent signal was read on the Victor V or Envison 2100 reader. […]

PANC-1 = experiment: Cell-Titer-Glo cell proliferation; details: Homo sapiens, pancreas, 72 h
Experimental: (§1) Exponentially growing cell lines of different tumor origins, cultured in appropriate media containing 10% fetal bovine serum at 37° C. in a 5% CO2 incubator were plated at low density (less than 2000 cells/well) in 96-well plates. Twenty four hours post-plating, cells were treated with different concentrations of compound ranging from 10 uM to 0.04 nM. Several wells were left untreated as a control. Seventy two hours post-treatment, cell numbers were determined using 50-100 ul per well of CellTiter-Glo (Promega #G7573). Plates were incubated at room temperature for 15 minutes and the chemiluminescent signal was read on the Victor V or Envison 2100 reader.
(§2) Concentration of compound that inhibited 50% of cell growth (IC50) was determined by 4 parameter fit of data using XLfit, (value of no cell control was subtracted from all samples for background). The Cell-Titer Glo data are shown in Table 3 below and represent a compilation of several different experiments, each performed using the general parameters outlined above, although minor variations may have been employed in some instances.

HN5 = experiment: Cell-Titer-Glo cell proliferation; details: Homo sapiens, head and neck, 72 h
Experimental: as §1, §2

MiaPaca = experiment: Cell-Titer-Glo cell proliferation; details: Homo sapiens, MIA PaCa-2, pancreas, 72 h
Experimental: as §1, §2

MV522 = experiment: Cell-Titer-Glo cell proliferation; details: lung, 72 h
Experimental: as §1, §2

BXPC3 = experiment: Cell-Titer-Glo cell proliferation; details: Homo sapiens, BXPC-3, pancreas, 72 h
Experimental: as §1, §2

A549-L = experiment: Cell-Titer-Glo cell proliferation; details: lung, 72 h
Experimental: as §1, §2

H1299 = experiment: Cell-Titer-Glo cell proliferation; details: Homo sapiens, NCI-H1299, lung, 72 h
Experimental: as §1, §2

LNCaP = experiment: Cell-Titer-Glo cell proliferation; details: Homo sapiens, prostate, 72 h
Experimental: as §1, §2

MX-1 = experiment: Cell-Titer-Glo cell proliferation; details: Homo sapiens, MX1, breast, 72 h
Experimental: as §1, §2

HT29 = experiment: Cell-Titer-Glo cell proliferation; details: Homo sapiens, HT-29, colon, 72 h
Experimental: as §1, §2

HCT116 = experiment: Cell-Titer-Glo cell proliferation; details: Homo sapiens, HCT-116, colon, 72 h
Experimental: as §1, §2

SF-268 = experiment: Multiple cell line screen, cell proliferation; details: Homo sapiens, SF-268, 72 h; glioblastoma; nuclei count, 3 days
Experimental: (§3) Growth properties for multiple cell lines were used to determine two seeding densities for each cell line that would be used in the screen. Cell lines were thawed and grown to 70-80% confluency before being used in the assay. On day −1, cells were seeded at 2 densities in 384-well plates and incubated at 37° C. overnight. Stock compound plates were prepared in advance which contained dimethyl sulfoxide (DMSO) alone and a 9-point half-log decreasing dose range of the compound in DMSO. These plates were stored at −80° C. and each plate was only thawed once and used. On day 0, the main assay plates received compound or DMSO via a sonic delivery system (ECHO). The highest final concentration of compound of the dose range in the culture plates was 10 uM. These plates were cultured at 37° C. for 3 days.
(§4) On day 3, the compound treated plates were stained and fixed to measure proliferation, apoptosis, and mitotic index. A nuclear stain was used to identify cells in the wells. By counting the number of nuclei, the proliferation index of compound treated groups were calculated as a percentage relative to the DMSO control, which was set to 100%. The IC50 values were calculated using model 205 in ExcelFit.

H4 = experiment: Multiple cell line screen, cell proliferation; details: 72 h; glioma; nuclei count, 3 days
Experimental: as §3, §4

CCF-SSTG1 = experiment: Multiple cell line screen, cell proliferation; details: 72 h; astrocytoma; nuclei count, 3 days
Experimental: as §3, §4

SNB-75 = experiment: Multiple cell line screen, cell proliferation; details: Homo sapiens, SNB-75, 72 h; glioblastoma; nuclei count, 3 days
Experimental: as §3, §4

DK-MG = experiment: Multiple cell line screen, cell proliferation; details: 72 h; glioblastoma; nuclei count, 3 days
Experimental: as §3, §4

DBTRG-05MG = experiment: Multiple cell line screen, cell proliferation; details: Homo sapiens, 72 h, glioblastoma, nuclei count, 3 days
Experimental: as §3, §4

SNB-19 = experiment: Multiple cell line screen, cell proliferation; details: Homo sapiens, SNB-19, 72 h; glioblastoma; nuclei count, 3 days
Experimental: as §3, §4

D283Med = experiment: Multiple cell line screen, cell proliferation; details: Homo sapiens, D283 Med, 72 h; medulloblastoma; nuclei count, 3 days
Experimental: as §3, §4

SF-539 = experiment: Multiple cell line screen, cell proliferation; details: Homo sapiens, SF-539, 72 h; astrocytoma; nuclei count, 3 days
Experimental: as §3, §4

U-87MG = experiment: Multiple cell line screen, cell proliferation; details: Homo sapiens, 72 h, glioblastoma, astrocytoma, nuclei count, 3 days
Experimental: as §3, §4

A172 = experiment: Multiple cell line screen, cell proliferation; details: Homo sapiens, A 172, 72 h; glioblastoma; nuclei count, 3 days
Experimental: as §3, §4

SF-295 = experiment: Multiple cell line screen, cell proliferation; details: Homo sapiens, SF-295, 72 h; glioblastoma; nuclei count, 3 days
Experimental: as §3, §4

SW1088 = experiment: Multiple cell line screen, cell proliferation; details: Homo sapiens, SW1088, 72 h; astrocytoma; nuclei count, 3 days
Experimental: as §3, §4

Measured: IC50

C[C@@H](Oc1cc(-n2cnc3ccc(CN4CCN(C)CC4)cc32)sc1C(N)=O)c1ccccc1C(F)(F)F [Example 1, 5-{6-[(4-Methylpiperazin-1-yl)methyl]-1H-benzimidazol-1-yl}-3-{(1R)-1-[2-(trifluoromethyl)phenyl]ethoxy}thiophene-2-carboxamide]
< 500 nM: PANC-1 | HN5 | MiaPaca | MV522 | BXPC3 | A549-L | H1299 | LNCaP | MX-1 | HT29 | HCT116
< 1000 nM: cancer cell lines
50 to 100 nM: SNB-75
< 50 nM: all other assays above
